Test results as given in EPA's ToxValDB 9.5 (doi:10.2903/j.efsa.2008.140r).
Values after ≈ are worked out from the molar mass of the structure shown.

What was measured:
Rattus norvegicus = conditions: for NOAEL: chronic
Canidae = conditions: chronic; duration: 1 years; oral; Dog Other; clinical signs
Typhlodromus pyri = conditions: not reported; other
Colinus virginianus = conditions: acute; oral; mortality
Daphnia magna = conditions: chronic/long-term; duration: 21 days; reproduction

With CCN(CC)C(=O)C(C)Oc1cccc2ccccc12 (stereo unspecified) [Napropamide] the LD50 (Rattus norvegicus; acute, mortality) was 4680 mg/kg-day, the NOAEL (Rattus norvegicus; duration: 2 years, oral, body weight) was 30 mg/kg-day and the NOAEL (Rattus norvegicus; mortality) was 30 mg/kg-day. For the same compound, the NOAEL (Canidae) was 50 mg/kg-day, the LEL (Typhlodromus pyri) was 4500 g/ha and the LD50 (Colinus virginianus) was > 2250 mg/kg-day. It also gave an LC50 (Oncorhynchus mykiss; acute, duration: 96 hours, mortality) of 6.6 µg/mL (≈ 24.3 µM), an NOEC (Oncorhynchus mykiss; chronic/long-term, duration: 28 days, growth) of 1.1 mg/L and an LC50 (Tagia sp.; acute, duration: 14 days, mortality) of 564 mg/kg. It also gave an NOEC (Tagia sp.; chronic/long-term, reproduction) of 60 mg/kg and an NOEC (Daphnia magna) of 4.3 mg/L.
